From publication PMC11578313, “Miniaturized Modular Click Chemistry‐enabled Rapid Discovery of Unique SARS‐CoV‐2 M^pro Inhibitors With Robust Potency and Drug‐like Profile” (Advanced Science, 2024)
Values joined by “and” are separate entries in the source; they are usually repeats but may differ in a detail not shown here. Equal entries are not always repeated.

Assay: In vivo pharmacokinetic study in male ICR mice (compound alone)
Conditions: for Plasma concentration (Calculated Concentration): mouse plasma
Description: The pharmacokinetics profile of the newly developed antiviral compound C5N17B was subsequently evaluated in male ICR mice that were free from specific pathogens, aiming to assess its potential for therapeutic application in vivo.
A total of six male ICR mice were randomly assigned to two groups. One group received the test drug intravenously at a dosage of 2 mg kg^−1, while the other group received oral administration at a dosage of 10 mg kg^−1. To prepare solutions of C5N17B, 2.39 mg compound was dissolved in a mixture of 0.119 mL DMSO, 0.238 mL polyoxyl 15 hydroxystearate (Solutol), and 2.027 mL normal saline. For the intravenous group, blood samples were collected from the sinus jugular into heparinized centrifugation tubes at various time points after dosing: 5, 15, 30 min, 1, 2, 4, 6, 8, and 24 h. As for the oral administration group, blood samples were collected at similar time points (0.05 mL of blood each time). The collected blood samples were then centrifuged at a speed of 4000 rpm for 10 min to separate plasma, which was subsequently stored at −20 °C until further LC‐MS analysis to determine the concentration of C5N17B. Briefly, the analysis involved adding 20 µL of plasma, sample calibration standard, quality control, and dilution quality control, and blank samples into respective wells on a 96‐well plate. Then each sample was quenched with 200 µL of internal standard (the blank sample was quenched with 200 µL of ACN: MeOH = 1:1), followed by vortex‐mixed for 5 min, and centrifuged for 0.5 min at 4000 rpm, 4 °C. Next, a 100 µL portion of supernatant was transferred to another clean 96‐well plate and diluted with 100 µL of water, vortex‐mixed for 5 min and centrifuged for 10 min at 4000 rpm, 4 °C, then the sample was injected for LC‐MS/MS analysis. All samples were quantified using an LC‐MS/MS‐AR Triple Quad 5500+ (SCIEX, USA) and the ExionLC liquid phase system. The mobile phase was 0.1% formic acid‐water/ACN with gradient elute at a flow rate of 0.8 mL mi^−1n (total time 2.20 min), and the detection wavelength was 225 nm. All blood samples were centrifuged using an Eppendorf 5424R centrifuge and quantified using an LC‐MS/MS‐AR Triple Quad 5500+ (SCIEX, USA). The pharmacokinetic parameters were calculated by WinNolin 8.2 software.

[1] = IV 2 mg/kg, individual mice 1#-3#, 2 mg/kg
[2] = IV 2 mg/kg, individual mice 1-3, 2 mg/kg
[3] = PO 10 mg/kg, individual mice 4#-6#, 10 mg/kg
[4] = PO 10 mg/kg, individual mice 4-6, 10 mg/kg

## Cc1cncc(C(=O)N2C[C@H]3CC[C@@H](C2)N3[C@H](c2cccc(F)c2)c2cn(CCc3ccsc3)nn2)c1 [Compound C5N17B]
IV 2 mg/kg, 5 min (5 min), individual mice 1#-3#, 2 mg/kg
  Plasma concentration (Calculated Concentration): 185 ng/mL and 233 ng/mL
IV 2 mg/kg, 0.5 h (30 min), individual mice 1#-3#, 2 mg/kg
  Plasma concentration (Calculated Concentration): 10.2 ng/mL and 16.1 ng/mL
IV 2 mg/kg, 1 h, individual mice
  plasma concentration: BQL
IV 2 mg/kg, 1 h, individual mice 1#-3#, 2 mg/kg
  Plasma concentration (Calculated Concentration): BQL (3×) and No Peak
IV 2 mg/kg, 2 h, individual mice
  plasma concentration: BQL
IV 2 mg/kg, 2 h, individual mice 1#-3#, 2 mg/kg
  Plasma concentration (Calculated Concentration): BQL (3×) and No Peak
IV 2 mg/kg, 4 h, individual mice
  plasma concentration: BQL
IV 2 mg/kg, 4 h, individual mice 1#-3#, 2 mg/kg
  Plasma concentration (Calculated Concentration): BQL (3×) and No Peak
IV 2 mg/kg, 6 h, individual mice
  plasma concentration: BQL
IV 2 mg/kg, 6 h, individual mice 1#-3#, 2 mg/kg
  Plasma concentration (Calculated Concentration): BQL (3×) and No Peak
IV 2 mg/kg, 8 h, individual mice
  plasma concentration: BQL
IV 2 mg/kg, 8 h, individual mice 1#-3#, 2 mg/kg
  Plasma concentration (Calculated Concentration): BQL (3×) and No Peak
IV 2 mg/kg, 24 h, individual mice
  plasma concentration: BQL
IV 2 mg/kg, 24 h, individual mice 1#-3#, 2 mg/kg
  Plasma concentration (Calculated Concentration): BQL (3×) and No Peak
[1]
  AUC0-∞: 51.4 ng·h/mL and 65.2 ng·h/mL
  AUC(0-t): 49.9 ng·h/mL and 62.6 ng·h/mL
  C0: 342 ng/mL and 528 ng/mL
  Cl: 648.77 mL/min/kg and 511.58 mL/min/kg
  Cmax: 185 ng/mL and 233 ng/mL
  MRT0-t: 6.48 min and 5.56 min
  MRT0-∞: 7.38 min and 6.9 min
  T1/2: 6 min and 6.66 min
  Vz: 5.616 L/kg and 4.924 L/kg
IV 2 mg/kg, individual mice 1-3
  Tlast: 0.5 h
[2]
  AUCINF_obs: 51.379 ng·h/mL and 65.1568 ng·h/mL
  AUCINF_pred: 51.3513 ng·h/mL and 64.7977 ng·h/mL
  AUC_%Back_Ext_obs: 49.436% and 42.7448% and 48.6559%
  AUC_%Back_Ext_pred: 49.6744% and 42.7678% and 48.9255%
  AUC_%Extrap_obs: 3.513% and 2.864% and 3.964%
  AUC_%Extrap_pred: 3.048% and 2.812% and 3.432%
  AUCall: 49.9075 ng·h/mL and 62.5739 ng·h/mL
  AUClast: 49.9075 ng·h/mL and 62.5739 ng·h/mL
  AUMCINF_obs: 8.9367 h*h*ng/mL and 6.325 h*h*ng/mL and 7.498 h*h*ng/mL
  AUMCINF_pred: 8.682 h*h*ng/mL and 6.307 h*h*ng/mL and 7.2606 h*h*ng/mL
  AUMC_%Extrap_obs: 20.8781% and 14.9894% and 22.7511%
  AUMC_%Extrap_pred: 18.5552% and 14.7494% and 20.228%
  AUMClast: 7.071 h*h*ng/mL and 5.377 h*h*ng/mL and 5.792 h*h*ng/mL
  C0: 342.295 ng/mL and 528.167 ng/mL
  Cl_obs: 648.773 mL/min/kg and 511.587 mL/min/kg
  Cl_pred: 412.98 mL/min/kg and 649.123 mL/min/kg and 514.422 mL/min/kg
  Clast: 10.2 ng/mL and 16.1 ng/mL
  Clast_pred: 15.8864 ng/mL and 10.0084 ng/mL and 13.8618 ng/mL
  Cmax: 185 ng/mL and 233 ng/mL
  Cmax_D: 146 kg·ng/mL/mg and 92.5 kg·ng/mL/mg and 116.5 kg·ng/mL/mg
  HL_Lambda_z: 0.1073 h and 0.09999 h and 0.1112 h
  Lambda_z: 6.932 h⁻¹ and 6.233 h⁻¹
  MRTINF_obs: 7.386 min and 6.906 min
  MRTINF_pred: 7.368 min and 6.72 min
  MRTlast: 6.462 min and 5.554 min
  Vss_obs: 2.71724 L/kg and 4.7917 L/kg and 3.53216 L/kg
  Vss_pred: 2.66526 L/kg and 4.78335 L/kg and 3.45846 L/kg
  Vz_obs: 3.81856 L/kg and 5.61561 L/kg and 4.92437 L/kg
  Vz_pred: 3.83697 L/kg and 5.61863 L/kg and 4.95166 L/kg
IV 2 mg/kg, mean of mice 1#-3#
  C0, Mean: 514 ng/mL
PO 10 mg/kg (10MPK), 5 min (5 min), individual mice 4#-6#
  Plasma concentration (Calculated Concentration): 23.7 ng/mL and 30.0 ng/mL and 68.2 ng/mL and 30 ng/mL
PO 10 mg/kg (10MPK), 15 min, individual mice 4-6
  Plasma concentration (Calculated Concentration): 15.3 ng/mL and 19.3 ng/mL
PO 10 mg/kg (10MPK), 30 min, individual mice 4-6
  Plasma concentration (Calculated Concentration): 8.4 ng/mL and 4.44 ng/mL and 12 ng/mL
PO 10 mg/kg (10MPK), 1 hr, individual mice 4-6
  Plasma concentration (Calculated Concentration): 6.32 ng/mL and 10.4 ng/mL and 4.89 ng/mL
PO 10 mg/kg (10MPK), 1 hr, samples marked "re", individual mice
  Plasma concentration (Calculated Concentration), re-analysis: 5.19 ng/mL
PO 10 mg/kg (10MPK), 2 hr, individual mice 4-6
  Plasma concentration (Calculated Concentration): 6.1 ng/mL and 8.71 ng/mL and 16.7 ng/mL
PO 10 mg/kg (10MPK), 4 hr, individual mice 4-6
  Plasma concentration (Calculated Concentration): 4.35 ng/mL and 7.74 ng/mL
PO 10 mg/kg (10MPK), 6 hr, individual mice 4-6
  Plasma concentration (Calculated Concentration): No Peak
PO 10 mg/kg (10MPK), 8 hr, individual mice 4-6
  Plasma concentration (Calculated Concentration): No Peak
PO 10 mg/kg (10MPK), 24 hr, individual mice 4-6
  Plasma concentration (Calculated Concentration): No Peak
PO 10 mg/kg (10MPK), individual mice 4#-6#
  T1/2: 208 min and 142 min and 290 min
PO 10 mg/kg, 0.5 h, individual mice 4#-6#, 10 mg/kg
  plasma concentration: 8.4 ng/mL and 12 ng/mL
PO 10 mg/kg, 2 h, individual mice 4#-6#, 10 mg/kg
  plasma concentration: 6.1 ng/mL
PO 10 mg/kg, 6 h, individual mice 4#-6#, 10 mg/kg
  plasma concentration: BQL
PO 10 mg/kg, 8 h, individual mice 4#-6#
  plasma concentration: BQL
PO 10 mg/kg, 24 h, individual mice 4#-6#
  plasma concentration: BQL
[3]
  AUC0-∞: 54.0 ng·h/mL and 102 ng·h/mL
  AUC(0-t): 45.5 ng·h/mL and 47.9 ng·h/mL
  Cmax: 30.0 ng/mL and 68.2 ng/mL and 23.7 ng/mL
  F: 14.30% and 15.08%
  MRT0-t: 114 min and 110 min
  MRT0-∞: 314 min and 185 min and 401 min
PO 10 mg/kg, individual mice 4-6
  Tlag: 0 h
PO 10 mg/kg, individual mice 4-6, full-precision output, 10 mg/kg
  Cmax: 30 ng/mL and 68.2 ng/mL and 23.7 ng/mL
[4]
  AUCINF_obs: 54.0464 ng·h/mL and 102.004 ng·h/mL
  AUCINF_pred: 53.9915 ng·h/mL and 94.7713 ng·h/mL
  AUC_%Extrap_obs: 48.9815% and 15.8821% and 53.0006%
  AUC_%Extrap_pred: 44.7444% and 15.7964% and 49.4138%
  AUCall: 45.4628 ng·h/mL and 47.9412 ng·h/mL
  AUClast: 45.4628 ng·h/mL and 47.9412 ng·h/mL
  AUMCINF_obs: 311.492 h*h*ng/mL and 166.93 h*h*ng/mL and 682.098 h*h*ng/mL
  AUMCINF_pred: 270.44 h*h*ng/mL and 166.412 h*h*ng/mL and 602.65 h*h*ng/mL
  AUMC_%Extrap_obs: 84.1842% and 48.3677% and 87.065%
  AUMC_%Extrap_pred: 81.7834% and 48.2072% and 85.3597%
  AUMClast: 49.2649 h*h*ng/mL and 86.1896 h*h*ng/mL and 88.2296 h*h*ng/mL
  Cl_F_obs: 3083.77 mL/min/kg and 1633.93 mL/min/kg
  Cl_F_pred: 3030.33 mL/min/kg and 3086.92 mL/min/kg and 1758.62 mL/min/kg
  Clast: 5.85 ng/mL and 2.52 ng/mL and 7.74 ng/mL
  Clast_pred: 4.934 ng/mL and 2.504 ng/mL and 6.705 ng/mL
  Cmax_D: 3 kg·ng/mL/mg and 6.82 kg·ng/mL/mg and 2.37 kg·ng/mL/mg
  HL_Lambda_z: 3.457 h and 2.361 h and 4.842 h
  Lambda_z: 0.2005 h⁻¹ and 0.2936 h⁻¹ and 0.1432 h⁻¹
  MRTINF_obs: 313.7 min and 185.3 min and 401.2 min
